The text below walks through data of PubChem BioAssay AID449750 (Broad Institute, 2010).

The AC50 is the concentration giving half of the maximal activity seen.

This assay is described as follows: non-covalent RecA intein splicing inhibitors, dose response, biochemical, cell-free, fluorescence, secondary screen (AID 449750).

The source made the active and inactive calls. How the calls were made is not given here.

As for `COc1ccc(C(=O)c2c(C(F)(F)F)oc3c2C(=O)c2ccccc2C3=O)cc1`, the AC50 was 0.93 µM. For the compound `CCc1cccc(CC)c1NC(=O)/C(C#N)=C/c1ccccc1C(F)(F)F`, the AC50 is 11.6 µM. With `O=C(O)c1ccc(-n2c(=O)c3ccccc3c3ccccc3c2=O)cc1`, the AC50 was > 38 µM (inactive).

For the compound `O=[N+]([O-])c1cc(Br)c(Nc2ccccc2)c([N+](=O)[O-])c1`, the AC50 was 7.02 µM. Turning to `O=C(CSCc1ccc([N+](=O)[O-])cc1)N/N=C/c1cccnc1`, the AC50 is > 38 µM (inactive). Next, `CC(C)(C)c1ccc(C(=O)Cn2cnnc2C#N)cc1`: > 38 µM (inactive); `CCOc1cc(/C=C2\C(=N)N3N=C(S(=O)(=O)CC)SC3=NC2=O)ccc1OC(=O)c1ccco1`: > 38 µM (inactive). Then `OCCN(CCO)c1ccc(C(c2ccccc2Cl)c2ccc(N(CCO)CCO)cc2Cl)c(Cl)c1`, with 4.12 µM.

Take `CCc1ccc(NC(=O)C(=O)N/N=C(\C)CC(=O)Nc2ccccn2)cc1`: the AC50 is > 38 µM (inactive). Take `Cn1nc([N+](=O)[O-])c(C(C#N)c2ccccn2)c(Cl)c1=O` (stereo unspecified): the AC50 was > 38 µM (inactive). Next, `CCN1CCN(C(c2cccnc2)c2cc(Cl)c3cccnc3c2O)CC1` (stereo unspecified): 16 µM. Next, `COC(CN(C(=O)CCl)C(C(=O)NC1CCCC(C)C1C)c1ccc(C)cc1)OC` (stereo unspecified): 10.9 µM; `Cc1ccccc1N1C(=O)C(Cl)=C(N2CCOCC2)C1=O`: > 38 µM (inactive).

On to `Cc1ccc(CNC(=O)c2ccc(N(C)S(=O)(=O)c3ccccc3)cc2)cc1`, for which the AC50 is > 38 µM (inactive). Next, `O=C(CCCN1C(=O)/C(=C/c2cccs2)SC1=S)Nc1ccc(O)cc1`: > 38 µM (inactive); `COc1cc(NC(C)CCCN)c2ncccc2c1Oc1ccccc1` (stereo unspecified): 15.2 µM.

With `Cc1ccc(CN=Cc2[nH]c3ccc(Br)c(Cl)c3c2O)cc1`, the AC50 was 22.9 µM. Then `CCCCCCn1c(N2CCC(C(N)=O)CC2)nc2c1c(=O)n(C)c(=O)n2C`, with > 38 µM (inactive); and `CCCn1nc([N+](=O)[O-])c(C(C#N)c2nc3ccccc3s2)c(Cl)c1=O` (stereo unspecified), with 23.4 µM. Take `CCCCCCCCCCCCCCCC[N+](C)(C)C`: the AC50 was 12.1 µM. Next, `Cc1ccccc1-c1cc2c(nn1)-c1ccccc1C2=O`: 8.26 µM. Then `O=c1[nH]c(Nc2ccccc2)cc2ccccc12`, with 1.68 µM; and `C/C(=C/CCC(C)[C@H]1CC[C@@]2(C)C3=C(CC[C@]12C)[C@@]1(C)CCC(=O)C(C)(C)[C@@H]1CC3)C(=O)O` (stereo partly specified), with 10.7 µM. Next, `COCC(C)NC(=O)CCS(=O)(=O)c1nc(-c2ccc(OC)cc2)cc(C(F)(F)F)n1` (stereo unspecified): > 38 µM (inactive); `Cc1ccc(S(=O)(=O)N[C@@H](CCCCN)C(=O)CCl)cc1`: > 38 µM (inactive).

Turning to `Cc1ccc(/C=C2\SC(N3CCN(C(c4ccccc4)c4ccccc4)CC3)=NC2=O)o1`, the AC50 is 4.48 µM.

As to `O=C(Oc1ccc2ccccc2c1)c1ccco1`, the AC50 was > 38 µM (inactive). Next, `CC1(CC(=O)N/N=C/c2ccc(OCc3ccc(Cl)cc3Cl)cc2)OCCCO1`: 11.2 µM; `O=[N+]([O-])c1ccc(N2CCOCC2)c2ccncc12`: > 38 µM (inactive); `O=C1C(Br)=Cc2cccc3cccc1c23`: > 38 µM (inactive). Then `Cc1[nH]n(C(N)=S)c(=O)c1C(c1ccccc1)C(C#N)C#N` (stereo unspecified), with > 38 µM (inactive); and `COc1ccc(S(=O)(=O)/N=C2\C=C(NS(=O)(=O)c3ccccc3)C(=O)c3ccccc32)cc1`, with 2.95 µM; and `Cc1cc(OC(=O)c2ccccc2)n(CCC#N)n1`, with 17.7 µM.

Turning to `COC(=O)c1ccccc1-c1ccc(C(c2c(C)[nH][nH]c2=O)c2c(C)[nH][nH]c2=O)o1`, the AC50 was 3.62 µM. For `O=Cc1ccc(Sc2nnc(-c3ccccc3)o2)c([N+](=O)[O-])c1`, the AC50 was 21 µM. On to `Oc1ccc(N=Cc2ccc(O)c(O)c2)cc1`, for which the AC50 was 17.6 µM. Then `Cc1ccc(SC(=O)c2c(C)noc2-c2cc(C)on2)cc1`, with > 38 µM (inactive). Then `COc1ccc(NC(=O)Nc2ccc(O)c3ccccc23)cc1`, with 39.3 µM. Next, `COc1ccccc1C1C(C#N)=C(N)Oc2c1c(-c1ccccc1)nn2-c1ccccc1` (stereo unspecified): 11.9 µM; `C/C(CC(=O)Nc1ccccn1)=N\NC(=O)c1ccncc1`: 28.8 µM; `Cc1cc2c3c(c1)C(C)CC(C)(C)N3C(=O)C2=C(C#N)C#N` (stereo unspecified): > 38 µM (inactive). Turning to `COc1ccc(S(=O)(=O)c2cnc3ccccc3n2)cc1`, the AC50 is > 38 µM (inactive). Then `O=[N+]([O-])c1cc(O)c2ncccc2c1`, with 8.43 µM.

`CCOC(=O)CSc1nnc(NCC(=O)OC(C)C)c(=O)[nH]1`: the AC50 was > 38 µM (inactive). `CCN(CC)CCN1C(=O)C(O)=C(C(C)=O)C1c1ccccc1[N+](=O)[O-]` (stereo unspecified): the AC50 is 37.7 µM. Regarding `O=C1c2cc(F)ccc2-n2c1nc1ccccc1c2=O`, the AC50 is > 38 µM (inactive). With `COc1cccc(NC2=C(Cl)C(=O)OC2OC(=O)c2ccco2)c1` (stereo unspecified), the AC50 is > 38 µM (inactive). Take `COc1ccccc1-c1cc(C(F)(F)F)nc(S(=O)(=O)CCCC(=O)N2CCCCC2C)n1` (stereo unspecified): the AC50 was > 38 µM (inactive).

Regarding `O=Nc1c(O)c2ccccc2c2ccccc12`, the AC50 is 2.68 µM. Then `O=C(N/N=C/c1cc(Cl)cc([N+](=O)[O-])c1O)c1ccccc1NS(=O)(=O)c1cccs1`, with 22.6 µM.

`Cc1ccc(-c2noc(-c3ccccc3C(=O)N3CCOCC3)n2)cc1`: the AC50 was > 38 µM (inactive). Next, `O=C1C(Cl)=C(Nc2ccc(O)cc2)C(=O)c2ccccc21`: 2.7 µM. For `COc1ccc2c(c1)C(=C(C#N)C#N)C(=O)N2CCc1ccccc1`, the AC50 is > 38 µM (inactive).

With `C/C(CC(=O)Nc1cc(C)ccn1)=N\NC(=O)c1ccncc1`, the AC50 is 37.4 µM.

For the compound `CC(=O)n1cc(N(C(=O)CCl)c2ccc(Cl)cc2)c2ccccc21`, the AC50 was 2.08 µM. Then `O=C(N/N=C/c1ccc([N+](=O)[O-])o1)c1ccc(O)cc1`, with > 38 µM (inactive); and `Nc1ccc(N)c(C(=O)O)c1`, with 21 µM. Regarding `Nc1nc(C(=O)N2CCOCC2)nn1C(=O)c1ccc(Cl)cc1`, the AC50 is > 38 µM (inactive). Then `CC(C)(C)c1ccc(S(=O)(=O)/N=C2\C=C(NS(=O)(=O)c3ccccc3)C(=O)c3ccccc32)cc1`, with 5.5 µM. Next, `Cc1ccc(C(=O)n2cnc3ccccc32)cc1C`: > 38 µM (inactive). Then `O=C(O)c1ccc([N+](=O)[O-])c2c1C(=O)c1ccccc1C2=O`, with > 38 µM (inactive); and `CC(C)(C)NC(=O)C(c1ccc(Cl)cc1)N(Cc1ccco1)C(=O)CCl` (stereo unspecified), with 11.6 µM; and `CC(C)c1nnc(NC(=O)CCS(=O)(=O)c2nc(-c3cccs3)cc(C(F)(F)F)n2)s1`, with > 38 µM (inactive). Consider `CCOc1cc(/C=C2/C(=N)N3C(=NC2=O)SN=C3S(=O)(=O)C(C)C)ccc1OC(=O)c1ccco1`, for which the AC50 is > 38 µM (inactive). As to `FC(F)(F)c1nnc(-c2ccccc2)nc1Sc1ccccc1`, the AC50 was > 38 µM (inactive). Take `CCOC(=O)C(CC)Sc1ncnc2c1nnn2-c1ccc(F)cc1` (stereo unspecified): the AC50 was > 38 µM (inactive).
